Data: PubChem BioAssay (NCI)
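Five concentrations, 48 hours, 96-well plates. GI50: concentration for 50% inhibition of growth. TGI is the concentration that stops growth completely.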

Columns and labels:
Assay in all cases: DTP human tumour cell line panel, 48 h
HCT-116 colon = system: HCT-116 colon
M14 melanoma = system: M14 melanoma
CAKI-1 renal = system: CAKI-1 renal
HCC-2998 colon = system: HCC-2998 colon
CCRF-CEM leukemia = system: CCRF-CEM leukemia
SN12C renal = system: SN12C renal
A498 renal = system: A498 renal
U251 CNS = system: U251 CNS
TK-10 renal = system: TK-10 renal
SK-MEL-2 melanoma = system: SK-MEL-2 melanoma
RPMI-8226 leukemia = system: RPMI-8226 leukemia
SK-MEL-5 melanoma = system: SK-MEL-5 melanoma
NCI-H460 lung = system: NCI-H460 lung
K-562 leukemia = system: K-562 leukemia
EKVX NSCLC = system: EKVX NSCLC
NCI/ADR-RES ovarian = system: NCI/ADR-RES ovarian
A549 NSCLC = system: A549 NSCLC
SW-620 colon = system: SW-620 colon
SK-OV-3 ovarian = system: SK-OV-3 ovarian
OVCAR-4 ovarian = system: OVCAR-4 ovarian
OVCAR-3 ovarian = system: OVCAR-3 ovarian
OVCAR-5 ovarian = system: OVCAR-5 ovarian
IGROV1 ovarian = system: IGROV1 ovarian
786-0 renal = system: 786-0 renal
NCI-H522 lung = system: NCI-H522 lung
SR leukemia = system: SR leukemia
MOLT-4 leukemia = system: MOLT-4 leukemia
ACHN renal = system: ACHN renal
UACC-62 melanoma = system: UACC-62 melanoma
UO-31 renal = system: UO-31 renal
DU-145 prostate = system: DU-145 prostate
SNB-75 CNS = system: SNB-75 CNS
SK-MEL-28 melanoma = system: SK-MEL-28 melanoma
BT-549 breast = system: BT-549 breast
HOP-62 NSCLC = system: HOP-62 NSCLC
COLO 205 colon = system: COLO 205 colon
UACC-257 melanoma = system: UACC-257 melanoma
SF-295 CNS = system: SF-295 CNS
HT29 colon = system: HT29 colon
MALME-3M melanoma = system: MALME-3M melanoma
HS 578T breast = system: HS 578T breast
MDA-MB-435 = system: MDA-MB-435
OVCAR-8 ovarian = system: OVCAR-8 ovarian
KM12 colon = system: KM12 colon
HCT-15 colon = system: HCT-15 colon
HOP-92 NSCLC = system: HOP-92 NSCLC
SF-539 CNS = system: SF-539 CNS
RXF 393 renal = system: RXF 393 renal
HL-60(TB) leukemia = system: HL-60(TB) leukemia
PC-3 prostate = system: PC-3 prostate

CNC(=O)c1cc(Oc2ccc3nc(NC(=O)c4ccc(CN5CCCN(C)CC5)c(C(F)(F)F)c4)sc3c2)ccn1
GI50 (HCT-116 colon): 1.16 µM | TGI (HCT-116 colon): 2.4 µM | GI50 (M14 melanoma): 1.22 µM | TGI (M14 melanoma): 2.65 µM | GI50 (CAKI-1 renal): 1.52 µM | TGI (CAKI-1 renal): 2.9 µM | GI50 (HCC-2998 colon): 1.88 µM | TGI (HCC-2998 colon): 3.36 µM | GI50 (CCRF-CEM leukemia): 1.8 µM | TGI (CCRF-CEM leukemia): 4.06 µM | GI50 (SN12C renal): 1.73 µM | TGI (SN12C renal): 3.3 µM | GI50 (A498 renal): 1.96 µM | TGI (A498 renal): 3.38 µM | GI50 (U251 CNS): 1.44 µM | TGI (U251 CNS): 2.8 µM | GI50 (TK-10 renal): 2.4 µM | TGI (TK-10 renal): 4.03 µM | GI50 (SK-MEL-2 melanoma): 1.78 µM | TGI (SK-MEL-2 melanoma): 3.38 µM | GI50 (RPMI-8226 leukemia): 0.694 µM | TGI (RPMI-8226 leukemia): 2.6 µM | GI50 (SK-MEL-5 melanoma): 1.59 µM | TGI (SK-MEL-5 melanoma): 2.98 µM | GI50 (NCI-H460 lung): 1.65 µM | TGI (NCI-H460 lung): 3.14 µM | GI50 (K-562 leukemia): 0.331 µM | TGI (K-562 leukemia): 1.46 µM | GI50 (EKVX NSCLC): 1.7 µM | TGI (EKVX NSCLC): 3.14 µM | GI50 (NCI/ADR-RES ovarian): 1.68 µM | TGI (NCI/ADR-RES ovarian): 3.53 µM | GI50 (A549 NSCLC): 1.64 µM | TGI (A549 NSCLC): 3.08 µM | GI50 (SW-620 colon): 1.7 µM | TGI (SW-620 colon): 3.19 µM | GI50 (SK-OV-3 ovarian): 1.76 µM | TGI (SK-OV-3 ovarian): 3.27 µM | GI50 (OVCAR-4 ovarian): 1.6 µM | TGI (OVCAR-4 ovarian): 3.11 µM | GI50 (OVCAR-3 ovarian): 1.85 µM | TGI (OVCAR-3 ovarian): 3.41 µM | GI50 (OVCAR-5 ovarian): 1.64 µM | TGI (OVCAR-5 ovarian): 3.07 µM | GI50 (IGROV1 ovarian): 1.74 µM | TGI (IGROV1 ovarian): 3.4 µM | GI50 (786-0 renal): 1.25 µM | TGI (786-0 renal): 2.55 µM | GI50 (NCI-H522 lung): 1.74 µM | TGI (NCI-H522 lung): 3.31 µM | GI50 (SR leukemia): 0.502 µM | TGI (SR leukemia): 2.15 µM | GI50 (MOLT-4 leukemia): 1.46 µM | TGI (MOLT-4 leukemia): 3.1 µM | GI50 (ACHN renal): 1.72 µM | TGI (ACHN renal): 3.09 µM | GI50 (UACC-62 melanoma): 1.69 µM | TGI (UACC-62 melanoma): 3.32 µM | GI50 (UO-31 renal): 1.35 µM | TGI (UO-31 renal): 2.71 µM | GI50 (DU-145 prostate): 1.7 µM | TGI (DU-145 prostate): 3.28 µM | GI50 (SNB-75 CNS): 1.22 µM | TGI (SNB-75 CNS): 2.48 µM | GI50 (SK-MEL-28 melanoma): 1.3 µM | TGI (SK-MEL-28 melanoma): 2.64 µM | GI50 (BT-549 breast): 1.68 µM | TGI (BT-549 breast): 3.14 µM | GI50 (HOP-62 NSCLC): 1.61 µM | TGI (HOP-62 NSCLC): 3.08 µM | GI50 (COLO 205 colon): 1.39 µM | TGI (COLO 205 colon): 2.78 µM | GI50 (UACC-257 melanoma): 1.57 µM | TGI (UACC-257 melanoma): 2.95 µM | GI50 (SF-295 CNS): 1.76 µM | TGI (SF-295 CNS): 3.22 µM | GI50 (HT29 colon): 0.387 µM | TGI (HT29 colon): 1.48 µM | GI50 (MALME-3M melanoma): 1.4 µM | TGI (MALME-3M melanoma): 2.84 µM | GI50 (HS 578T breast): 1.48 µM | TGI (HS 578T breast): 3.8 µM | GI50 (MDA-MB-435): 1.48 µM | TGI (MDA-MB-435): 2.88 µM | GI50 (OVCAR-8 ovarian): 1.67 µM | TGI (OVCAR-8 ovarian): 3.18 µM | GI50 (KM12 colon): 1.68 µM | TGI (KM12 colon): 3.21 µM | GI50 (HCT-15 colon): 0.959 µM | TGI (HCT-15 colon): 2.24 µM | GI50 (HOP-92 NSCLC): 1.36 µM | TGI (HOP-92 NSCLC): 3 µM | GI50 (SF-539 CNS): 1.1 µM | TGI (SF-539 CNS): 2.32 µM | GI50 (RXF 393 renal): 1.07 µM | TGI (RXF 393 renal): 2.27 µM | GI50 (HL-60(TB) leukemia): 1.35 µM | TGI (HL-60(TB) leukemia): 2.94 µM | GI50 (PC-3 prostate): 1.48 µM | TGI (PC-3 prostate): 3.24 µM
